Data on seven compounds can be found in ChEMBL document CHEMBL1201862, “PubChem BioAssay data set” (2004).

Activity calls are given as the source filed them. Cut-off read from the data, not from the text of the source, for most assays here: active = IC50 of 5 µM or less and inactive = more.

In general, EC50 refers to the midpoint of the concentration-response curve. A word on the IC50: it is the concentration at which inhibition is half-maximal.

One experiment addresses Transthyretin (Homo sapiens, UniProt P02766). The experiment is described as follows: Luminescence-based cell-based high throughput dose response assay to identify activators of Transthyretin (TTR) transcription. The experiment is classed as functional.
The target in experiment [1] is E3 ubiquitin-protein ligase UHRF1 (Homo sapiens, UniProt Q96T88). The experiment is described as follows: Counterscreen for inhibitors of 5-meCpG-binding domain protein 2 (MBD2): TRFRET-based biochemical high throughput dose response assay to identify inhibitors of binding of ubiquitin-like with PHD and ring finger domains 1 (UHRF1) to methylated oligonucleotide. Background: A counterscreen serves to expose hits that act by an unwanted route or on another target.

Experiment [2] has as its target Solute carrier family 12 member 2/member 5 (Homo sapiens, UniProt P55011+Q9H2X9). The experiment is described as follows: KCC2 and NKCC1 inhibition by rubidium flux, cell-based, NKCC1 counter-screen (AID 1734). The experiment is classed as functional, HEK293.
Another experiment deals with Danio rerio. The experiment is described as follows: In Vivo Angiogenesis Dose-Response Confirmation. [Related pubchem assays: 732 (Assay preceding this confirmatory assay.)]. The experiment is classed as functional, organism-based.
Experiment [3] can be described thus: cytotoxicity toward HT-29 cells – cell-based, CellTiter-Glo luminescence, IC50, dose response (AID 1117330). The experiment is classed as functional.
Experiment [4] in a line: RKO cell viability reduction, dose response, CellTiter-Glo luminescence (AID 1117322). In kind it is functional. On the technique in general: Cellular ATP, detected with luciferase, serves as a proxy for viable cell number.
The nature of experiment [5]: cytotoxicity toward Colo320 cells – cell-based, CellTiter-Glo luminescence, IC50, dose response (AID 1117334). Conditions: COLO 320. In kind it is functional.
The nature of experiment [6]: SNU-C1 cell viability reduction, dose response, CellTiter-Glo luminescence (AID 1117323). In kind it is functional, cell-based.
A short description of experiment [7]: cytotoxicity toward HCT116 cells – cell-based, CellTiter-Glo luminescence, IC50, dose response (AID 1117332). In kind it is functional. Conditions: HCT-116.
Experiment [8] can be described thus: CellTiter-Glo luminescence survival assay, SW480 colon tumor line, concentration-response curve, half-maximal inhibitory concentration (AID 1117338). The experiment is classed as functional.
A short description of experiment [9]: Reduced DLD-1 viability, concentration-response, CellTiter-Glo luminescence (AID 1117352). The experiment is classed as functional.
A short description of experiment [10]: HCT116 cell viability decrease, GSK3B pretreatment – CellTiter-Glo, IC50, dose response (AID 1117339). In kind it is functional. Conditions: HCT-116.
In experiment [11] the target is G-protein coupled receptor 183 (Homo sapiens, UniProt P32249). The experiment can be described thus: SAR confirmation of small molecule antagonists of the EBI2 receptor via a luminescent beta-arrestin assa. In kind it is functional.
The next experiment concerns the target 14-3-3 protein gamma (Homo sapiens, UniProt P61981). The experiment is described as follows: modulators of 14-3-3 gamma client binding – dose response (AID 711). The experiment is classed as functional.

Sequence of E3 ubiquitin-protein ligase UHRF1 (Q96T88 whole entry, the tested form may be a part): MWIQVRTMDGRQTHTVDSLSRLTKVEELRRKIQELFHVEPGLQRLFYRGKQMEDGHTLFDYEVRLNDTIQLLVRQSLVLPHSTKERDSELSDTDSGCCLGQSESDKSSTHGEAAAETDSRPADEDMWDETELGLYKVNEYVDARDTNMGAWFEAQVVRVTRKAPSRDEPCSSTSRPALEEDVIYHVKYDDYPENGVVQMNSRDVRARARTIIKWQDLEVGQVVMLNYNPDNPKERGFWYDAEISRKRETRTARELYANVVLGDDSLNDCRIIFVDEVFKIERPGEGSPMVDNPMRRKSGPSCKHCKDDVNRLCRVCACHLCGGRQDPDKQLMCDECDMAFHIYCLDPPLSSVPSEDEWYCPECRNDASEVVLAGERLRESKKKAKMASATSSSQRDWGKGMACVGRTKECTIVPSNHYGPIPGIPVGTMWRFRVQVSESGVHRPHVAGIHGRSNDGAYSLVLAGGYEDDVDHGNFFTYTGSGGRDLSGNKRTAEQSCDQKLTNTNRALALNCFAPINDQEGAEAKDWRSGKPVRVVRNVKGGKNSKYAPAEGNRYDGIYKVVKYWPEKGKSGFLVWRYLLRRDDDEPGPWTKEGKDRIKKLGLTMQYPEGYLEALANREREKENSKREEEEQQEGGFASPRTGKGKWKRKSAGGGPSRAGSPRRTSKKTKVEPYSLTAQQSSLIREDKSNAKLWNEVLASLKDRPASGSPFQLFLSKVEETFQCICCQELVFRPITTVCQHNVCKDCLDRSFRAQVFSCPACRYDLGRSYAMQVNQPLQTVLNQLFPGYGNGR
Sequence of 14-3-3 protein gamma (P61981 whole entry): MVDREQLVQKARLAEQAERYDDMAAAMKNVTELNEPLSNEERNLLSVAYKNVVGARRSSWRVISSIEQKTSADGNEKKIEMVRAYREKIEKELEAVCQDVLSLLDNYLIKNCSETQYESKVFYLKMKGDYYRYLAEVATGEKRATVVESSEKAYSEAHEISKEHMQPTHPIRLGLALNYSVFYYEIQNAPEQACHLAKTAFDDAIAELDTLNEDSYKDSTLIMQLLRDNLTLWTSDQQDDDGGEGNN
Sequence of G-protein coupled receptor 183 (P32249 whole entry): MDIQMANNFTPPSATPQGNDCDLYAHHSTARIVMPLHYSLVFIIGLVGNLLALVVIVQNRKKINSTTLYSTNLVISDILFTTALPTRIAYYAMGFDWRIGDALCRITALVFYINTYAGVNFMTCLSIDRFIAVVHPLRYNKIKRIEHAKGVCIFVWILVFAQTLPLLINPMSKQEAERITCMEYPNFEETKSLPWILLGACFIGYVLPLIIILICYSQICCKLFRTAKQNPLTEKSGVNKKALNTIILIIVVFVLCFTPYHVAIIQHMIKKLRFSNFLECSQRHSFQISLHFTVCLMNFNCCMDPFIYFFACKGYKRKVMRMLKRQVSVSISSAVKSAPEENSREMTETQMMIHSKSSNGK

For the compound `Cc1cc(C)n(CC(=O)n2c(C)c(C)c3ccccc32)n1`, at Transthyretin, the EC50 is > 167 µM (inactive).
Take `NC1=C(c2nc3ccccc3s2)C(=O)CN1NC(=O)c1c[nH]c2ccccc12`: in experiment [1], the IC50 was > 43.8 µM (inactive).
In the case of `O=C(CN1C(=O)NC2(CCCC2)C1=O)Nc1nc(-c2ccc(F)cc2)cs1`, the half-inhibitory concentration (IC50) in [2] is 2.9 µM (active).
In the case of `O=C1Nc2ccc(F)cc2/C1=C1/Nc2ccccc2/C1=N\OCCN1CCNCC1`, in the experiment with Danio rerio, the concentration for half-maximal inhibition (IC50) was 13.1 µM (not active).
For the compound `Cc1c(O)cc2c(c1C)O[C@](C)(CCC[C@H](C)CCC[C@H](C)CCCC(C)C)CC2`, the IC50 in experiment [3], in experiment [4], in [5], in [6], in experiment [7] and in experiment [8] was > 20 µM (inactive) in each case. The IC50 in experiment [9] and in [10] was > 20 µM (inactive) in each case.
In the case of `O=C(/C=C/c1ccc(F)cc1)N1CCN(S(=O)(=O)c2ccc3ccccc3c2)CC1`, the IC50 in experiment [11] was 0.0212 µM (active).
For the compound `Cc1ccc(-n2c(=O)[nH]cc(C(=O)Nc3ccc4c(c3)OCCO4)c2=O)cc1C`, on 14-3-3 protein gamma, the IC50 is on record as > 50 µM (not active).
